Active and inactive are the calls of the source. No cut-off for these calls is given here.
System: Radical scavenging activity
Assay: Antioxidant activity assessed as DPPH radical scavenging activity
Type: functional

| Structure (SMILES) | Activity |
| --- | --- |
| CCCCCC(=O)O[C@H]1[C@H](Oc2cc(CC(=O)CCc3ccc(O)cc3)c(O)c(C(=O)O)c2)O[C@H](CO)[C@@H](O)[C@@H]1O | inactive |
| CC1=CC(=O)C2=C(C)C[C@H](OC(=O)CCc3ccc(OC4O[C@H](CO)[C@@H](O)[C@H](O)[C@H]4O)cc3)[C@@H]3[C@H](OC(=O)[C@H]3C)[C@@H]12 (some centres not stated) | inactive |
